Test [1] has as its target T1, Octopine dehydrogenase (OcDH) (Pecten maximus, UniProt Q9BHM6).
T1 construct: gene odh1; OcDH-His5, U-[15N] labeled
The experiment in a line: 1H-15N TROSY-HSQC NMR titration. The class given is binding.

Test [2] concerns the target T1, Octopine dehydrogenase (OcDH). The experiment in a line: 1H-15N TROSY-HSQC NMR titration; also present in the OcDH/NADH/agmatine crystal structure. The class given is binding.
The target is the same in test [3]. The experiment in a line: 1H-15N TROSY-HSQC NMR titration of OcDH saturated with […] NADH. The class given is binding.
Test [4] has as its target T2, Octopine dehydrogenase (OcDH) (Pecten maximus, UniProt Q9BHM6).
T2 construct: gene odh1; OcDH-His5, residues 2–404 in the model
T2 sequence (Q9BHM6 1-399): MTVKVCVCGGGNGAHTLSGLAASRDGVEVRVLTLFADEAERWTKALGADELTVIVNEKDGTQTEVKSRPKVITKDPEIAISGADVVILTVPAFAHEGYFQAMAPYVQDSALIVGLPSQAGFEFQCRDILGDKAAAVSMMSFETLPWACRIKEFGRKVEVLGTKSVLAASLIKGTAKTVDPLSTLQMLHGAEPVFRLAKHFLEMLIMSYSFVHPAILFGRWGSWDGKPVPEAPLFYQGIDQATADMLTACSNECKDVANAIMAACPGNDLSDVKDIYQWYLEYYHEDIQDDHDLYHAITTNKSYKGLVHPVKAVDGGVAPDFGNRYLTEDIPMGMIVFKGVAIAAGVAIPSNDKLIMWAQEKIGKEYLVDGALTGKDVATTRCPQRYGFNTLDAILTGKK
The experiment in a line: X-ray crystal structure ([…] Å, soak) of OcDH/NADH/agmatine; Ki from enzyme inhibition (Lineweaver-Burk). The class given is biochemical.

On to `NC(=O)c1ccc[n+]([C@@H]2O[C@H](COP(=O)([O-])OP(=O)(O)OC[C@H]3O[C@@H](n4cnc5c(N)ncnc54)[C@H](O)[C@@H]3O)[C@@H](O)[C@H]2O)c1` [NAD^+], for which, in test [1], the dissociation constant Kd is 400 ± 50 µM. Turning to `NC(=O)C1=CN([C@@H]2O[C@H](COP(=O)(O)OP(=O)(O)OC[C@H]3O[C@@H](n4cnc5c(N)ncnc54)[C@H](O)[C@@H]3O)[C@@H](O)[C@H]2O)C=CC1` [NADH], the Kd in test [2] turned out to be 62 ± 7 µM. In test [3], `N=C(N)NCCC[C@H](N)C(=O)O` [L-arginine] returned a Kd of 4100 ± 310 µM. As for `N=C(N)NCCCCN` [agmatine], in test [4], the Ki is 40000 ± 2000 µM.

Values taken from paper PMC2924402, “Insights into the Mechanism of Ligand Binding to Octopine Dehydrogenase from Pecten maximus by NMR and Crystallography” (PLoS ONE, 2010).
